# Results taken from patent publication US8012995B1, “Pharmaceutically active sulfonamide derivatives” (Merck Serono SA, priority 1999, dated 2011).
# Key:
# JNK2 = JNK2 (Homo sapiens, UniProt P45984); assay: JNK2 in vitro assay (SPA, GST-c-Jun phosphorylation); assay type: biochemical; settings: amount necessary to achieve 50% inhibition, GST-c-Jun substrate
# Description: (§1) JNK 2 and 3 in vitro assays: JNK3 and/or 2 assays are performed in 96 well MTT plates, by incubation of 0.5 μg of recombinant pre-activated GST-JNK or GST-JNK2 with 1 μg of recombinant, biotinylated GST-c-Jun and 2 μM ^33γ-ATP (2 nCi/μl), in the to presence or absence of sulfonamide inhibitors if formula I and in a reaction volume of 50 μl containing 50 mM Tris-HCl, pH 8.0; 10 mM MgCl2; 1 mM Dithiothreitol, and 100 μM NaVO4. The incubation is performed for 120 min. at R.T and stopped upon addition of 200 μl of a solution containing 250 μg of Streptavidine-coated SPA beads (Amersham, Inc.)^•, 5 mM EDTA, 0.1% Triton X-100 and 50 μM ATP, in phosphate saline buffer. After incubation for 60 minutes at RT, beads are sedimented by centrifugation at 1500×g for 5 minutes, resuspended in 200 μl of PBS containing 5 mM EDTA, 0.1% Triton X-100 and 50 μM ATP and the radioactivity measured in a scintillation β counter, following sedimentation of the beads as described above. By substituting GST-c Jun for biotinylated GST-1ATF2 or myelin basic protein, this assay can be used to measure inhibition of preactivated p38 and ERK MAP Kinases, respectively.
# (§2) The values indicated in respect of JNK2 and 3, p38 and ERK2 refer to the IC50 (μM), i.e. the amount necessary to achieve 50% inhibition of said target (e.g. JNK2). From the above table it could be derived that said test compounds according to formula I do have a significant effect both on JNK2 and 3, but virtually no effect onto p38 and ERK2, thus delivering a quite selective inhibitory effect.
# JNK3 = JNK3 (Homo sapiens, UniProt P53779); assay: JNK3 in vitro assay (SPA, GST-c-Jun phosphorylation); assay type: biochemical; settings: amount necessary to achieve 50% inhibition, GST-c-Jun substrate
# Sequence of JNK3 (P53779 whole entry, species assumed): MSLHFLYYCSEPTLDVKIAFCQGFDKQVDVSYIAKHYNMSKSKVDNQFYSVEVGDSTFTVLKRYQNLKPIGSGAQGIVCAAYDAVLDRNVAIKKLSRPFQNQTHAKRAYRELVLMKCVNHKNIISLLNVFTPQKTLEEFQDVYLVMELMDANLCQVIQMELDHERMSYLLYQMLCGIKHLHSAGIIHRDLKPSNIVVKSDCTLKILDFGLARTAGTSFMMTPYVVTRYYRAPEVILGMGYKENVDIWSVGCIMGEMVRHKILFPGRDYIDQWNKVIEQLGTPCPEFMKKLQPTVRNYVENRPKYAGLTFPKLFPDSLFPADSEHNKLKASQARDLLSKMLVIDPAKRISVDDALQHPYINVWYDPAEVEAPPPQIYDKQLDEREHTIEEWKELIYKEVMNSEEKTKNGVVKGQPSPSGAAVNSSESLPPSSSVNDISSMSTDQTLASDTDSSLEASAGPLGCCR
# Description: as §1, §2
# p38 = p38 (Homo sapiens, UniProt Q16539); assay: p38 in vitro kinase assay (SPA, GST-ATF2 substrate); assay type: biochemical; settings: amount necessary to achieve 50% inhibition
# Sequence of p38 (Q16539 whole entry): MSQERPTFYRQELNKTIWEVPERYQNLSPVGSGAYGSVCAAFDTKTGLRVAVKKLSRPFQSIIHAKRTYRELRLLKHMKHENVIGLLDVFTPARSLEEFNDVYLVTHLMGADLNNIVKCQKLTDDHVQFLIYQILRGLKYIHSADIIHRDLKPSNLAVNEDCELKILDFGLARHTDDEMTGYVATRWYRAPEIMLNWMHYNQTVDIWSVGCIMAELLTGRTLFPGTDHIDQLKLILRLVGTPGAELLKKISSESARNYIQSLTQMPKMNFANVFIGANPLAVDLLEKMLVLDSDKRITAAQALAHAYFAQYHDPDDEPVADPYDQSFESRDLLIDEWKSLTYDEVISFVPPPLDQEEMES
# Description: as §1, §2
# ERK2 = ERK2 (Homo sapiens, UniProt P28482); assay: ERK2 in vitro kinase assay (SPA, myelin basic protein substrate); assay type: biochemical; settings: amount necessary to achieve 50% inhibition
# Sequence of ERK2 (P28482 whole entry, species assumed): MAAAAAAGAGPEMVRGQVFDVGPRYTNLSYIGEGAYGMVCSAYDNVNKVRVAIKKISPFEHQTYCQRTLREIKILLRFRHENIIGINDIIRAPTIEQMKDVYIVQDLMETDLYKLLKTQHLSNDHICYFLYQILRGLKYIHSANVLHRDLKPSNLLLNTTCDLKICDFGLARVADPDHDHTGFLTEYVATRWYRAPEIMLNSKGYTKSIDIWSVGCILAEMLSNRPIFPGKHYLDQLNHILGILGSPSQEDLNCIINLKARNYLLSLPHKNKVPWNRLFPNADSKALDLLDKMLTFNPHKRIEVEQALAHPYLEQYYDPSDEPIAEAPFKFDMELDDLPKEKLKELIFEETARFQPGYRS
# Description: as §1, §2
# [1] = test system: IL-2 release by PMA+Iono-stimulated Jurkat cells; assay: IL-2 release assay (ELISA); assay type: cell-based; settings: Homo sapiens, PMA+Ionomycine-stimulated Jurkat cells, 24 hours, read-out: % Inhibition of IL2 Production @3 uM
# Description: Jurkat cells, a human T cell leukemia cell line (American Type Culture Collection # TIB 152) were cultured in RPMI 1640 medium (Gibco, BRL) supplemented with 10% of […] FCS, Glutamine and Penstrep. The cell suspension in the medium is diluted to give 2.10^6 cells/mL. The cells were plated (2.10^5 cells/well) on a 96-well plate containing different concentration of test compound (final concentration of compounds, 10, 3, 1, […], 0.1 μM). This mixture is incubated 30 minutes at 37° C. in a humidified CO2 atmosphere. Cells were then treated with 10 ul PMA+Ionomycine (0.1 μM and 1 μM final concentration) in all wells except negative control. In wells without compounds, 10 μl of RPMI 2% DMSO (=0.1% final) is added. Cells are incubated 24 hours at 37° C. and then the supernatant harvested (freeze at −20° C. if not used the same day) prior to performing IL-2 ELISA test on the supernatant.
# IL-2 release into the medium by PMA+Iono-stimulated Jurkat cells, in presence or absence of test compounds is assayed by ELISA. Following the procedure described below
# Transfer 100 μl capture antibody diluted in PBS at 5 μg/mL into a 96 well ELISA plate and incubate overnight at room temperature.
# Aspirate each well and wash 3 times with Wash buffer. After the last wash, damp the plate.
# 1. Saturate with 200 μl PBS-10% FCS. Incubate 1 hour at room temperature.
# 2. Repeat the wash step 2.
# • 1. Add 100 μl of sample or standard ([…]) and incubate 2 hours at room temperature. • 2. Wash 3 times. • 3. Add 100 μl of biotinylated anti-human IL-2 at 12.5 ng/mL. Incubate 2 hours at room temperature. • 4. Wash 3 times. • 5. Add 100 μl streptavidin-HRP (Zymed #43-4323) at 1:10′000. Incubate 30 minutes at room temperature. • 6. Wash 3 times • 7. Add 100 μl substrate solution (citric acid/Na2HPO4 (1:1)+H2O2 1:2000+OPD). Incubate 20-30 minutes at room temperature. • 8. Add 50 μl of stop solution to each well. • 9. Determine optical density using a microliter plate reader set to 450 nm with correction at 570 nm.
# Hlr c-Jun HeLa cells = assay: C-Jun reporter assay (Dual-Luciferase); assay type: cell-based; settings: Homo sapiens, Hlr c-Jun HeLa cells transfected with pMEKK1
# Description: Hlr c-Jun HeLa cells are cultured in DMEM High Glc supplemented with 10% FCS (Sigma), 2 mM Glutamine (Gibco), P/S, Hygromycin b 100 μg/mL and G418 250 μg/mL
# The cell suspension are diluted with medium to give about 3.5×10^6 cells/mL and 1 mL of cell suspension are put onto 2 10 cm culture dishes containing 9 mL of culture medium.
# • Control: 0.2 μg pTK Renilla, 5.8 μg pBluescript KS, 500 μl OPTIMEM (GIBCO), 18 μl Fugene 6 • Induced: 0.1 μg pMEKK1, 0.2 μg pTK Renilla, 5.7 μg pBluescript KS, 500 μl OPTIMEM (GIBCO), 18 μl Fugene 6 30′ RT
# The transfection mixture is added to the plated cells. The plates are incubated over night at 37° C. in a humidified atmosphere of 5% CO2 in air
# A 96 wells plate containing 100 μl of culture medium per well is prepared
# Negative control (vehicle): 2 μl of DMSO is added to the 100 μl (in triplicate).
# Compound: 2 μl of Hit compound stock dilution are added to the 100 μl (in triplicate).
# The transfected cells are trypsinised and ressuspend in 12 mL of culture medium.
# 100 μl of the dilution are added to each of the 96 wells plate.
# The plate is incubated over night at 37° C. in a humidified atmosphere of 5% CO2 in air
# Dual-Luciferase™ Reporter Assay System (Promega)
# The medium is removed from the plate and the cells washed two times with 100 μl PBS Completely remove the rinse solution before applying PLB reagent. Dispense into each culture well […] of 1×PLB. Place the culture plates on a rocking platform or orbital shaker with gentle
# rocking/shaking to ensure complete and even coverage of the cell monolayer with 1×PLB. Rock the culture plates at room temperature for 15 minutes. Transfer 20 μl of the lysate into a white opaque 96 wells plate. Read in a luminometer.
# • Inject 50 μl of Luciferase Assay Reagent II wait 5″, read 10″ • Inject 50 μl of Stop & Glo® Reagent wait 5″, read 10″ Check RLU Luciferase/RLU Renilla *1000
# Sequence of JNK2 (P45984 whole entry, species assumed): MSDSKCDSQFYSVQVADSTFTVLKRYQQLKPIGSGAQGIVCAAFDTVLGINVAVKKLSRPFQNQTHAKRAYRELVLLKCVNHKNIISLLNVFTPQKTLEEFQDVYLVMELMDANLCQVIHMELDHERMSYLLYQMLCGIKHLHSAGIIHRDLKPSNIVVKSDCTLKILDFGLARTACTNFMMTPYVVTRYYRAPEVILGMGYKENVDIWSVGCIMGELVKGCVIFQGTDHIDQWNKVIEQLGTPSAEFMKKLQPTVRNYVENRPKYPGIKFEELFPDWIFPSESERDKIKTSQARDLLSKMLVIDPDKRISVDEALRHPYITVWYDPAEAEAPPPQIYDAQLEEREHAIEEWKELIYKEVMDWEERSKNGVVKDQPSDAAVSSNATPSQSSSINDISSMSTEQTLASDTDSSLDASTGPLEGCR
Compound,IC50 (JNK2) [nM],IC50 (JNK3) [nM],IC50 (p38) [nM],IC50 (ERK2) [nM],inhibition at 3 µM [1] [%],inhibition at 10 µM (Hlr c-Jun HeLa cells) [%]
"O=C(NCc1ccc(S(=O)(=O)N2CCC(C(=O)c3ccc(F)cc3F)CC2)s1)c1ccc(Cl)cc1 [Example 37, 4-chloro-N-[(5-{[4-(2,4-difluorobenzoyl)piperidin-1-yl]sulfonyl}thien-2-yl)methyl]benzamide]",1190,680,> 30000,> 30000,> 30,> 30
"O=C(NCc1ccc(S(=O)(=O)N2CCCN(C(=O)Cc3ccccc3)CC2)s1)c1ccc(Cl)cc1 [Example 84, 4-chloro-N-[(5-{[4-(phenylacetyl)-1,4-diazepan-1-yl]sulfonyl}thien-2-yl)methyl]benzamide]",1300,860,> 30000,> 30000,> 30,> 30
"O=C(NCc1ccc(S(=O)(=O)N2CCC(Nc3ccccc3)CC2)s1)c1ccc(Cl)cc1 [Example 86, N-({5-[(4-anilinopiperidin-1-yl)sulfonyl]thien-2-yl}methyl)-4-chlorobenzamide]",1050,800,> 30000,> 30000,> 30,> 30
"O=C(NCc1ccc(S(=O)(=O)N2CCC(n3nnc4ccccc43)CC2)s1)c1ccc(Cl)cc1 [Example 91, N-[(5-{[4-(1H-1,2,3-benzotriazol-1-yl)piperidin-1-yl]sulfonyl}thien-2-yl)methyl]-4-chlorobenzamide]",640,150,> 30000,> 30000,> 30,> 30
"O=C(NCc1ccc(S(=O)(=O)N2CCC(n3cnc4ccccc43)CC2)s1)c1ccc(Cl)cc1 [Example 109, N-[(5-{[4-(1H-benzimidazol-1-yl)piperidin-1-yl]sulfonyl}thien-2-yl)methyl]-4-chlorobenzamide]",590,230,> 30000,> 30000,> 30,> 30
"O=C(NCc1ccc(S(=O)(=O)N2CCC(Nc3ccc(Cl)cc3)CC2)s1)c1ccc(Cl)cc1 [Example 120, 4-chloro-N-[(5-{[4-(4-chloroanilino)piperidin-1-yl]sulfonyl}thien-2-yl)methyl]benzamide]",560,400,> 30000,> 30000,> 30,> 30
"O=C(NCc1ccc(S(=O)(=O)N2CCC(Nc3cccc(S(=O)(=O)CCO)c3)CC2)s1)c1ccc(Cl)cc1 [Example 131, 4-chloro-N-({5-[(4-{3-[(2-hydroxyethyl)sulfonyl]-anilino}piperidin-1-yl)sulfonyl]thien-2-yl}methyl)-benzamide]",2230,710,> 30000,> 30000,> 30,> 30
"NS(=O)(=O)c1cccc(NC2CCN(S(=O)(=O)c3ccc(CNC(=O)c4ccc(Cl)cc4)s3)CC2)c1 [Example 155, N-{[5-({4-[3-(aminosulfonyl)anilino]piperidin-1-yl}sulfonyl)thien-2-yl]methyl}-4-chlorobenzamide]",500,530,> 30000,> 30000,> 30,> 30
"O=C(NCc1ccc(S(=O)(=O)N2CCN(C(=O)c3cccc4ccccc34)CC2)s1)c1ccc(Cl)cc1 [Example 168, 4-chloro-N-[(5-{[4-(1-naphthoyl)piperazin-1-yl]sulfonyl}thien-2-yl)methyl]benzamide]",1200,890,> 30000,> 30000,> 30,> 30
"COc1cccc(NC2CCN(S(=O)(=O)c3ccc(CNC(=O)c4ccc([N+](=O)[O-])cc4)s3)CC2)c1 [Example 204, 4-nitro-N-[(5-{[4-(3-methoxyanilino)piperidin-1-yl]sulfonyl}thien-2-yl)methyl]-benzamide]",220,170,> 30000,> 30000,> 30,> 30
"COC(=O)c1cccc(NC2CCN(S(=O)(=O)c3ccc(CNC(=O)c4ccc([N+](=O)[O-])cc4)s3)CC2)c1 [Example 211, methyl 3-{[1-({5-[({4-nitrobenzoyl}amino)methyl]thien-2-yl}sulfonyl)piperidin-4-yl]amino}benzoate]",390,270,> 30000,> 30000,> 30,> 30
"O=C(NCc1ccc(S(=O)(=O)N2CCC(n3nnc4ccccc43)CC2)s1)c1ccccc1O [Example 271, N-[(5-{[4-(1H-1,2,3-benzotriazol-1-yl)piperidin-1-yl]sulfonyl}thien-2-yl)methyl]-2-hydroxybenzamide]",220,360,> 30000,> 30000,> 30,> 30
"COc1cccc(C(=O)NCc2ccc(S(=O)(=O)N3CCC(Nc4ccccc4[N+](=O)[O-])CC3)s2)c1 [Example 285, N-({5-[(4-{2-nitroanilino}piperidin-1-yl)sulfonyl]thien-2-yl}methyl)-3-methoxybenzamide]",230,190,> 30000,> 30000,> 30,> 30
